Source: patent publication US20160257997A1, “METHODS FOR WHOLE-CELL ANALYSIS OF GRAM-POSITIVE BACTERIA” (AdvanDx, Inc., priority 2009, published 2016)
Read-outs that look alike come from different tables or passages of the source.

Experiments:
S. aureus (MRSA) = assay: cefoxitin Etest susceptibility testing (MIC), MRSA; assay type: cell-based, Staphylococcus aureus
MS-CNS = assay: cefoxitin Etest susceptibility testing (MIC), MS-CNS; assay type: cell-based, coagulase-negative staphylococci
MR-CNS = assay: cefoxitin Etest susceptibility testing (MIC), MR-CNS; assay type: cell-based, coagulase-negative staphylococci
S. aureus (MSSA) = assay: cefoxitin Etest susceptibility testing (MIC), MSSA; assay type: cell-based, Staphylococcus aureus

Measured: MIC

CO[C@@]1(NC(=O)Cc2cccs2)C(=O)N2C(C(=O)O)=C(COC(N)=O)CS[C@@H]21 [cefoxitin]
128 µg/mL: S. aureus (MRSA); Staphylococcus aureus, ATCC 43300 / MRSA, cefoxitin Etest, Reference (ATCC 43300), SCCmec type II, read-out: MIC | S. aureus (MRSA); Staphylococcus aureus, ATCC 43300 / MRSA, cefoxitin, strain 39, MRSA ATCC 43300, SCCmec II, read-out: MIC Etest | S. aureus (MRSA); cefoxitin Etest, strain 39, MRSA, Reference (ATCC 43300), type II (EVIGENE)
48 µg/mL: S. aureus (MRSA); Staphylococcus aureus, MRSA / USA300, cefoxitin Etest, Reference (USA300), SCCmec type IV, read-out: MIC | S. aureus (MRSA); Staphylococcus aureus, MRSA / USA300, cefoxitin, strain 886, MRSA USA300, SCCmec IV, read-out: MIC Etest | S. aureus (MRSA); Staphylococcus aureus, MRSA / USA500, cefoxitin Etest, Reference (USA500), SCCmec type IV, read-out: MIC | S. aureus (MRSA); cefoxitin Etest, strain 15, MRSA, Clinical DK, type IV/ST80 | S. aureus (MRSA); cefoxitin Etest, strain 297, MRSA, Reference DK, type IA, EVIGENE IV | S. aureus (MRSA); cefoxitin Etest, strain 304, MRSA, Reference DK, type IV | S. aureus (MRSA); cefoxitin Etest, strain 307, MRSA, Reference DK, type IV | S. aureus (MRSA); cefoxitin Etest, strain 560, MRSA, Reference (USA500), type IV | S. aureus (MRSA); cefoxitin Etest, strain 886, MRSA, Reference (FPR3757, USA300), type IV | S. aureus (MRSA); cefoxitin Etest, strain 926, MRSA, Clinical DK, type IV (EVIGENE)
32 µg/mL: MR-CNS; strain 4, MR-CNS, S. epidermidis, Reference (ATCC 51625)
256 µg/mL: MR-CNS; strain 352, MR-CNS, S. epidermidis, Reference DK | MR-CNS; strain 414, MR-CNS, Clinical DK
1.5 µg/mL: MS-CNS; cefoxitin Etest, strain 629, MS-CNS, S. epidermidis, Reference (ATCC 14990) | MS-CNS; cefoxitin, MS-CNS (n = 5), read-out: MIC Etest
3 to 4 µg/mL: S. aureus (MSSA); Staphylococcus aureus, cefoxitin, MSSA (n = 15), read-out: MIC Etest
4 µg/mL: S. aureus (MSSA); Staphylococcus aureus, ATCC 29213 / MSSA, cefoxitin Etest, MSSA Reference (ATCC 29213), read-out: MIC | S. aureus (MSSA); Staphylococcus aureus, ATCC 29213 / MSSA, cefoxitin, strain 156, MSSA ATCC 29213, read-out: MIC Etest | S. aureus (MSSA); cefoxitin Etest, strain 21, MSSA, Clinical EU | S. aureus (MSSA); cefoxitin Etest, strain 22, MSSA, Clinical DK | S. aureus (MSSA); cefoxitin Etest, strain 24, MSSA, Clinical DK | S. aureus (MSSA); cefoxitin Etest, strain 26, MSSA, Clinical DK | S. aureus (MSSA); cefoxitin Etest, strain 54, MSSA, Clinical EU | S. aureus (MSSA); cefoxitin Etest, strain 156, MSSA, Reference (ATCC 29213)
192 µg/mL: MR-CNS; strain 351, MR-CNS, S. warneri, Reference DK
64 µg/mL: S. aureus (MRSA); cefoxitin Etest, strain 557, MRSA, Reference (USA300), type IV | S. aureus (MRSA); cefoxitin Etest, strain 797, MRSA, Clinical DK, type II (EVIGENE) | MR-CNS; strain 353, MR-CNS, S. hominis, Reference DK
24 µg/mL: S. aureus (MRSA); cefoxitin Etest, strain 927, MRSA, Clinical DK, type IV
96 µg/mL: S. aureus (MRSA); cefoxitin Etest, strain 321, MRSA, Clinical DK, type V (EVIGENE) | S. aureus (MRSA); cefoxitin Etest, strain 924, MRSA, Clinical DK, type IV (EVIGENE) | S. aureus (MRSA); cefoxitin Etest, strain 1184, MRSA, Reference (ATCC BAA-1708), type II (EVIGENE)
3 µg/mL: S. aureus (MSSA); Staphylococcus aureus, ATCC 11632 / MSSA, cefoxitin Etest, MSSA Reference (ATCC 11632), read-out: MIC | S. aureus (MSSA); Staphylococcus aureus, ATCC 25923 / MSSA, cefoxitin Etest, MSSA Reference (ATCC 25923), read-out: MIC | S. aureus (MSSA); Staphylococcus aureus, ATCC 25923 / MSSA, cefoxitin, strain 155, MSSA ATCC 25923, read-out: MIC Etest | S. aureus (MSSA); cefoxitin Etest, strain 1, MSSA, Reference (ATCC 6538) | S. aureus (MSSA); cefoxitin Etest, strain 23, MSSA, Clinical DK | S. aureus (MSSA); cefoxitin Etest, strain 117, MSSA, Reference (ATCC 11632) | S. aureus (MSSA); cefoxitin Etest, strain 155, MSSA, Reference (ATCC 25923)
12 µg/mL: S. aureus (MRSA); Staphylococcus aureus, MRSA, cefoxitin Etest, Reference (DK, SSI), SCCmec type V, read-out: MIC | S. aureus (MRSA); Staphylococcus aureus, MRSA, cefoxitin, strain 306, MRSA DK, SCCmec V, read-out: MIC Etest | S. aureus (MRSA); cefoxitin Etest, strain 306, MRSA, Reference DK, type V | S. aureus (MRSA); cefoxitin Etest, strain 460, MRSA, Reference, Tokyo, type V
≧256: S. aureus (MRSA); cefoxitin Etest, strain 2, MRSA, Reference (ATCC 33591), type III | S. aureus (MRSA); cefoxitin Etest, strain 9, MRSA, Reference EU, type I | S. aureus (MRSA); cefoxitin Etest, strain 10, MRSA, Reference EU, type Ia | S. aureus (MRSA); cefoxitin Etest, strain 11, MRSA, Reference EU, type II | S. aureus (MRSA); cefoxitin Etest, strain 12, MRSA, Reference EU, type III | S. aureus (MRSA); cefoxitin Etest, strain 13, MRSA, Reference EU, type IIIa | S. aureus (MRSA); cefoxitin Etest, strain 295, MRSA, Reference DK, type IA | S. aureus (MRSA); cefoxitin Etest, strain 298, MRSA, Reference DK, type II | S. aureus (MRSA); cefoxitin Etest, strain 299, MRSA, Reference DK, type II | S. aureus (MRSA); cefoxitin Etest, strain 300, MRSA, Reference DK, type II | S. aureus (MRSA); cefoxitin Etest, strain 302, MRSA, Reference DK, type IIIA | S. aureus (MRSA); cefoxitin Etest, strain 303, MRSA, Reference DK, type III | S. aureus (MRSA); cefoxitin Etest, strain 305, MRSA, Reference DK, type III | S. aureus (MRSA); cefoxitin Etest, strain 320, MRSA, Clinical DK, type IV (EVIGENE) | S. aureus (MRSA); cefoxitin Etest, strain 463, MRSA, Reference (NCTC10422), type Ib | S. aureus (MRSA); cefoxitin Etest, strain 559, MRSA, Reference (USA300), type IV | S. aureus (MRSA); cefoxitin Etest, strain 801, MRSA, Clinical DK, type II (EVIGENE) | S. aureus (MRSA); cefoxitin Etest, strain 812, MRSA, Clinical DK, type II (EVIGENE) | S. aureus (MRSA); cefoxitin Etest, strain 920, MRSA, Clinical DK, type I (EVIGENE) | S. aureus (MRSA); cefoxitin Etest, strain 931, MRSA, Clinical DK, type III (EVIGENE) | S. aureus (MRSA); cefoxitin Etest, strain 1468, MRSA, Reference (COL), type I | MR-CNS; strain 154, MR-CNS, S. saccharolyticus, Reference (ATCC 14953) | MR-CNS; strain 350, MR-CNS, S. epidermidis, Reference | MR-CNS; strain 408, MR-CNS, Clinical DK | MR-CNS; strain 412, MR-CNS, Clinical DK
≥ 256 µg/mL: S. aureus (MRSA); Staphylococcus aureus, ATCC 33591 / MRSA, cefoxitin Etest, Reference (ATCC 33591), SCCmec type III, read-out: MIC | S. aureus (MRSA); Staphylococcus aureus, ATCC 33591 / MRSA, cefoxitin, strain 2, MRSA ATCC 33591, SCCmec III, read-out: MIC Etest | S. aureus (MRSA); Staphylococcus aureus, MRSA / NCTC 10422, cefoxitin Etest, Reference (NCTC10422), SCCmec type Ib, read-out: MIC | S. aureus (MRSA); Staphylococcus aureus, MRSA, cefoxitin Etest, Reference (Clinical COL), SCCmec type I, read-out: MIC | S. aureus (MRSA); Staphylococcus aureus, MRSA, cefoxitin Etest, Reference (Clinical EU), SCCmec type Ia, read-out: MIC | S. aureus (MRSA); Staphylococcus aureus, MRSA, cefoxitin Etest, Reference (DK, SSI), SCCmec type IIIa, read-out: MIC | S. aureus (MRSA); Staphylococcus aureus, MRSA, cefoxitin, strain 9, MRSA EU, SCCmec I, read-out: MIC Etest | S. aureus (MRSA); Staphylococcus aureus, MRSA, cefoxitin, strain 11, MRSA EU, SCCmec II, read-out: MIC Etest | S. aureus (MRSA); Staphylococcus aureus, MRSA, cefoxitin, strain 13, MRSA, SCCmec IIIa, read-out: MIC Etest | S. aureus (MRSA); Staphylococcus aureus, MRSA, cefoxitin, strain 320, MRSA clinical DK, SCCmec IV, read-out: MIC Etest | S. aureus (MRSA); Staphylococcus aureus, MRSA, cefoxitin, strain 1468, MRSA COL, SCCmec I, read-out: MIC Etest
